Legend:
Type in all cases: cell-based
[1] = test system: SKOV3 cells (human ovarian cancer-derived cell line); experiment: Cell proliferation activity in three-dimensional medium FCeM, ATP assay (Experimental Example 1); conditions: SKOV3, 3D medium FCeM, 4 days, DMSO control = 100%, average of two tests
Procedure: A cell proliferation promoting effect when the compound to be used in the present invention was added to a three-dimensional medium was studied. Specifically, precultured (adhesion cultured) SKOV3 cells (human ovarian cancer-derived cell line) were recovered and suspended in a three-dimensional cell culture medium (“FCeM (registered trade mark)” (Nissan chemical corporation)) to prepare a cell suspension. […] The cell suspension seeded in the plate was stood overnight at 37° C., 5% CO2. Then, a DMSO diluted solution (4.44 μL) of the compound to be used in the present invention was added at a final concentration of 5 μM (or two steps of […] and 10 μM) (no stirring after addition). After addition of each compound, the mixtures were stood for 4 days at 37° C., 5% CO2. […] The luminescence intensity (RLU value) was measured by FlexStation3 (manufactured by Molecular Devices), and cell proliferation was evaluated.
The proliferation rate was calculated based on the control (cells added with DMSO without containing the compound to be used in the present invention) as the standard (100%). The values shown in the tables are average values of the results of two tests.

[2] = test system: mouse small intestinal organoid (Crypt); experiment: Small intestine organoid formation in Matrigel (Experimental Example 4); conditions: 5 μM, 7 days
Procedure: About 20 cm of the mouse small intestine was excised, and the adipose tissue and vascular tissue were removed on ice. The contents were sufficiently washed with PBS, cut open with scissors, and fragmented to about 2 mm. They were washed 20 times with 15 mL of PBS and the supernatant was removed. 25 mL of Gentle Cell Dissociation Reagent (manufactured by STEMCELL) was added, and the mixture was incubated at room temperature for 15 min while stirring at 20 rpm. The supernatant was removed, 10 mL of cold 0.1% BSA/PBS was added to the precipitate, and pipetting was performed three times. The supernatant was filtered with a 70 μm cell strainer (manufactured by BD Bioscience), and the filtrate was collected. Similarly, addition of 0.1% BSA/PBS to the remaining precipitate, pipetting, and filtration were repeated three times, and thus series of the four filtrates were prepared. Each filtrate was centrifuged at 290 g for 5 min at 4° C. After removing the supernatant, the cells were resuspended in 10 mL of cold 0.1% BSA/PBS and centrifuged at 200 g for 3 min at 4° C. The supernatant was removed, 10 mL of DMEM/F12 (manufactured by Wako Pure Chemical Industries, Ltd.) was added and the cells were suspended. 1 mL was separated and observed under a microscope. A filtrate having a sufficient intestinal fragment (Crypt) was selected, and the number of Crypt was counted using a hemocytometer. Cold Matrigel (registered trade mark) Matrix GFR(manufactured by Corning) in an equal amount to the cell suspension was added, mixed, and quickly dispensed into a 24-well plate warmed to 37° C. at 500 crypts/[…]/well. The plate was allowed to stand at 37° C. for 10 min to complete gelation. […] As a control, a well with no addition of the compound was prepared. After culturing for 7 days, the number and diameter of the formed small intestinal organoids were measured under a microscope, and the comparison results with no addition (control) are shown in the ninth table.

[3] = test system: Canine kidney renal tubule epithelial cells (MDCK cells); experiment: MDCK cells-1: Cyst formation on Matrigel, Cyst area by fluorescence microscope (Experimental Example 7); conditions: 10 μM, 7 days
Procedure: Canine kidney renal tubule epithelial cells (MDCK cells, manufactured by DS PHARMA BIO MEDICAL) were precultured in EMEM medium containing 10% FBS and 1% NEAA. Cold Matrigel (registered trade mark) Matrix GFR (manufactured by Corning) was spread on a 24-well plate by 50 μL and fixed by incubating at 37° C. for 15 min. The aforementioned MDCK cells were suspended in a medium at a concentration of 20000 cells/mL, cold Matrigel (registered trade mark) Matrix GFR was added at […] and seeded at 1 mL/well. […] As a control (compound no-addition), DMSO was added at a final concentration of 0.1%. Seven days later, the cells were washed with PBS (1 mL/well), 4% paraformaldehyde/PBS (manufactured by Wako Pure Chemical Industries, Ltd.) was added (1 mL/well) and fixed at room temperature for 20 min. Thereafter, the supernatant was removed, IF buffer (0.2% Triton X-100 (manufactured by Sigma-Aldrich), 0.05% Tween 20 (manufactured by Sigma-Aldrich)-containing PBS) were added at 1 mL/well, stood for 30 min and removed. […] After washing 3 times every 5 min with IF buffer, VECTASHIELD Mounting Medium with DAPI (manufactured by Vector Laboratories) was added dropwise, and the cells were observed and analyzed with a fluorescence microscope (ArrayScan, manufactured by Thermo Fisher Scientific).

Compound | proliferation rate (%) ([1]; compound 5 μM) | organoid diameter (μm) ([2]; control 130 ± 18) | organoid number (relative value) ([2]; control = 1) | organoid formation (in words) ([2]; mouse small intestinal organoid culture) | increase of the area per one Cyst ([3]; Control as 100) [%] | Cyst area (relative value) ([3]; control = 100) | proliferation rate (%) (5 μM) ([1]; 5 μM) | proliferation rate (%) (10 μM) ([1]; 10 μM)
CCC(=NNC(=O)C(CC)Nc1ccccc1)c1ccc(O)c(C)c1O (centres unmarked) [k-1:H-7] | 236.46 | 153 ± 21 | 2.5 | promotes organoid formation | ≥ 20 | 124 | – | –
CC/C(=N\NC(=O)Nc1ccccc1)c1ccc(O)c(C)c1O [k-1:H-10] | – | – | – | – | – | – | 127.9 | 138.4
